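1) Cells in 96-well plates. 2) Compound, 48 h, 5 concentrations. 3) Linear interpolation between surrounding doses. 4) Unreached endpoint = highest concentration. Abbreviation: GI50, concentration required for 50% inhibition of growth. TGI: concentration producing complete growth inhibition.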
Tests used:
Test in all cases: NCI-60 cell line screen, 48 h
786-0 renal = system: 786-0 renal
A498 renal = system: A498 renal
A549 NSCLC = system: A549 NSCLC
ACHN renal = system: ACHN renal
BT-549 breast = system: BT-549 breast
CAKI-1 renal = system: CAKI-1 renal
CCRF-CEM leukemia = system: CCRF-CEM leukemia
COLO 205 colon = system: COLO 205 colon
DU-145 prostate = system: DU-145 prostate
EKVX NSCLC = system: EKVX NSCLC
HCC-2998 colon = system: HCC-2998 colon
HCT-116 colon = system: HCT-116 colon
HCT-15 colon = system: HCT-15 colon
HL-60(TB) leukemia = system: HL-60(TB) leukemia
HOP-62 NSCLC = system: HOP-62 NSCLC
HOP-92 NSCLC = system: HOP-92 NSCLC
HS 578T breast = system: HS 578T breast
HT29 colon = system: HT29 colon
IGROV1 ovarian = system: IGROV1 ovarian
K-562 leukemia = system: K-562 leukemia
KM12 colon = system: KM12 colon
LOX IMVI melanoma = system: LOX IMVI melanoma
M14 melanoma = system: M14 melanoma
MALME-3M melanoma = system: MALME-3M melanoma
MCF7 breast = system: MCF7 breast
MDA-MB-231 breast = system: MDA-MB-231 breast
MDA-MB-435 = system: MDA-MB-435
MOLT-4 leukemia = system: MOLT-4 leukemia
NCI-H226 lung = system: NCI-H226 lung
NCI-H23 lung = system: NCI-H23 lung
NCI-H460 lung = system: NCI-H460 lung
NCI-H522 lung = system: NCI-H522 lung
NCI/ADR-RES ovarian = system: NCI/ADR-RES ovarian
OVCAR-3 ovarian = system: OVCAR-3 ovarian
OVCAR-4 ovarian = system: OVCAR-4 ovarian
OVCAR-5 ovarian = system: OVCAR-5 ovarian
OVCAR-8 ovarian = system: OVCAR-8 ovarian
PC-3 prostate = system: PC-3 prostate
RPMI-8226 leukemia = system: RPMI-8226 leukemia
RXF 393 renal = system: RXF 393 renal
SF-268 CNS = system: SF-268 CNS
SF-295 CNS = system: SF-295 CNS
SF-539 CNS = system: SF-539 CNS
SK-MEL-2 melanoma = system: SK-MEL-2 melanoma
SK-MEL-28 melanoma = system: SK-MEL-28 melanoma
SK-MEL-5 melanoma = system: SK-MEL-5 melanoma
SK-OV-3 ovarian = system: SK-OV-3 ovarian
SN12C renal = system: SN12C renal
SNB-19 CNS = system: SNB-19 CNS
SNB-75 CNS = system: SNB-75 CNS
SW-620 colon = system: SW-620 colon
T-47D breast = system: T-47D breast
TK-10 renal = system: TK-10 renal
U251 CNS = system: U251 CNS
UACC-62 melanoma = system: UACC-62 melanoma
UO-31 renal = system: UO-31 renal

With `COc1cc(-c2csc(NC(=O)Nc3ccc(Cl)c(C(F)(F)F)c3)n2)cc(OC)c1OC` the GI50 (786-0 renal) was 2080 nM, the TGI (786-0 renal) was 6470 nM and the GI50 (A498 renal) was 260 nM. It also gave a TGI (A498 renal) of 1710 nM, a GI50 (A549 NSCLC) of 1380 nM and a TGI (A549 NSCLC) of 4750 nM. It also gave a GI50 (ACHN renal) of 1270 nM, a TGI (ACHN renal) of 3570 nM and a GI50 (BT-549 breast) of 1940 nM. The TGI (BT-549 breast) was 5550 nM, the GI50 (CAKI-1 renal) was 1370 nM and the TGI (CAKI-1 renal) was 3620 nM. For the same compound, the GI50 (CCRF-CEM leukemia) was 2240 nM, the TGI (CCRF-CEM leukemia) was 12800 nM and the GI50 (COLO 205 colon) was 1650 nM. The TGI (COLO 205 colon) was 3460 nM, the GI50 (DU-145 prostate) was 1790 nM and the TGI (DU-145 prostate) was 6670 nM. For the same compound, the GI50 (EKVX NSCLC) was 1190 nM, the TGI (EKVX NSCLC) was 7030 nM and the GI50 (HCC-2998 colon) was 2950 nM. For the same compound, the TGI (HCC-2998 colon) was 10600 nM, the GI50 (HCT-116 colon) was 1420 nM and the TGI (HCT-116 colon) was 7930 nM. For the same compound, the GI50 (HCT-15 colon) was 1540 nM, the TGI (HCT-15 colon) was 10700 nM and the GI50 (HL-60(TB) leukemia) was 1760 nM. For the same compound, the TGI (HL-60(TB) leukemia) was 6050 nM, the GI50 (HOP-62 NSCLC) was 1700 nM and the TGI (HOP-62 NSCLC) was 4570 nM. The GI50 (HOP-92 NSCLC) was 357 nM, the TGI (HOP-92 NSCLC) was 2220 nM and the GI50 (HS 578T breast) was 1670 nM. For the same compound, the TGI (HS 578T breast) was 5470 nM, the GI50 (HT29 colon) was 1800 nM and the TGI (HT29 colon) was 4680 nM. For the same compound, the GI50 (IGROV1 ovarian) was 1830 nM, the TGI (IGROV1 ovarian) was 9300 nM and the GI50 (K-562 leukemia) was 1160 nM. For the same compound, the TGI (K-562 leukemia) was 11300 nM, the GI50 (KM12 colon) was 764 nM and the TGI (KM12 colon) was 4930 nM. The GI50 (LOX IMVI melanoma) was 1530 nM, the TGI (LOX IMVI melanoma) was 3480 nM and the GI50 (M14 melanoma) was 2260 nM. The TGI (M14 melanoma) was 7300 nM, the GI50 (MALME-3M melanoma) was 1970 nM and the TGI (MALME-3M melanoma) was 5570 nM. For the same compound, the GI50 (MCF7 breast) was 1870 nM, the TGI (MCF7 breast) was 10100 nM and the GI50 (MDA-MB-231 breast) was 1470 nM. For the same compound, the TGI (MDA-MB-231 breast) was 3930 nM, the GI50 (MDA-MB-435) was 1810 nM and the TGI (MDA-MB-435) was 4840 nM. For the same compound, the GI50 (MOLT-4 leukemia) was 1130 nM, the TGI (MOLT-4 leukemia) was 4350 nM and the GI50 (NCI-H226 lung) was 1740 nM. For the same compound, the TGI (NCI-H226 lung) was 6030 nM, the GI50 (NCI-H23 lung) was 1470 nM and the TGI (NCI-H23 lung) was 6060 nM. For the same compound, the GI50 (NCI-H460 lung) was 1370 nM, the TGI (NCI-H460 lung) was 3500 nM and the GI50 (NCI-H522 lung) was 1100 nM. For the same compound, the TGI (NCI-H522 lung) was 3570 nM, the GI50 (NCI/ADR-RES ovarian) was 1500 nM and the TGI (NCI/ADR-RES ovarian) was 5530 nM. The GI50 (OVCAR-3 ovarian) was 1160 nM, the TGI (OVCAR-3 ovarian) was 3120 nM and the GI50 (OVCAR-4 ovarian) was 1150 nM. It also gave a TGI (OVCAR-4 ovarian) of 4530 nM, a GI50 (OVCAR-5 ovarian) of 2350 nM and a TGI (OVCAR-5 ovarian) of 10500 nM. For the same compound, the GI50 (OVCAR-8 ovarian) was 1380 nM, the TGI (OVCAR-8 ovarian) was 3660 nM and the GI50 (PC-3 prostate) was 494 nM. The TGI (PC-3 prostate) was 3360 nM, the GI50 (RPMI-8226 leukemia) was 573 nM and the TGI (RPMI-8226 leukemia) was 4100 nM. The GI50 (RXF 393 renal) was 1600 nM, the TGI (RXF 393 renal) was 3900 nM and the GI50 (SF-268 CNS) was 2250 nM. It also gave a TGI (SF-268 CNS) of 10400 nM, a GI50 (SF-295 CNS) of 1130 nM and a TGI (SF-295 CNS) of 2640 nM. The GI50 (SF-539 CNS) was 1890 nM, the TGI (SF-539 CNS) was 5470 nM and the GI50 (SK-MEL-2 melanoma) was 1800 nM. For the same compound, the TGI (SK-MEL-2 melanoma) was 4570 nM, the GI50 (SK-MEL-28 melanoma) was 2600 nM and the TGI (SK-MEL-28 melanoma) was 11300 nM. The GI50 (SK-MEL-5 melanoma) was 1180 nM, the TGI (SK-MEL-5 melanoma) was 2440 nM and the GI50 (SK-OV-3 ovarian) was 1980 nM. It also gave a TGI (SK-OV-3 ovarian) of 4550 nM, a GI50 (SN12C renal) of 1760 nM and a TGI (SN12C renal) of 6600 nM. The GI50 (SNB-19 CNS) was 1930 nM, the TGI (SNB-19 CNS) was 6970 nM and the GI50 (SNB-75 CNS) was 1210 nM. It also gave a TGI (SNB-75 CNS) of 3170 nM, a GI50 (SW-620 colon) of 2060 nM and a TGI (SW-620 colon) of 10500 nM. The GI50 (T-47D breast) was 885 nM, the TGI (T-47D breast) was 4070 nM and the GI50 (TK-10 renal) was 1780 nM. The TGI (TK-10 renal) was 5030 nM, the GI50 (U251 CNS) was 1410 nM and the TGI (U251 CNS) was 3190 nM. The GI50 (UACC-62 melanoma) was 1240 nM, the TGI (UACC-62 melanoma) was 3750 nM and the GI50 (UO-31 renal) was 1650 nM. It also gave a TGI (UO-31 renal) of 5640 nM.

From PubChem BioAssay (NCI)
